In the assay the target is T1, human recombinant CRF-1 receptor (Homo sapiens, UniProt P34998).
T1 construct: expressed in transfected cells; host or cells: Chinese hamster ovary (CHO) cells, G418-selected
T1 sequence (P34998 24-415): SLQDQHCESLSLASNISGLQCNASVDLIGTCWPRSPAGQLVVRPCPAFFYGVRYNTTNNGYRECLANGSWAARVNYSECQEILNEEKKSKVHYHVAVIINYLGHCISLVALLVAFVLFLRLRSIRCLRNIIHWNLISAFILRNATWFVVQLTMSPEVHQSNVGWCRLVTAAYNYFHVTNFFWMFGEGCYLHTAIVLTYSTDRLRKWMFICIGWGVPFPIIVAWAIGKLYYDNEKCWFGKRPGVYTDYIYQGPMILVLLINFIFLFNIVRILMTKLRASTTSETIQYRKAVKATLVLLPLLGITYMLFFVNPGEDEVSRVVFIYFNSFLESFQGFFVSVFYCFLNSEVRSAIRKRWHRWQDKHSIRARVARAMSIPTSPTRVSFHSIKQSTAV
Briefly: CRF-1 receptor antagonism, HTRF cAMP assay in CHO cells in the presence of 1 nM CRF. To be noted: CHO cells expressing human recombinant CRF-1; inhibition of the effect of 1 nM CRF on cAMP; read-out: hCRF1ANTAG/IC50. Format: cell-based. Here is the method: The CRF-1 or CRF-2a receptor activity of the agents of the invention has been determined in vitro in the following way:
Chinese hamster ovary (CHO) cells expressing either the human recombinant CRF-1 or CRF-2a receptors (Chen et al., Proc Natl Acad Sci USA 90, 8967-8971, 1993; Liaw et al., Endocrinology 137, 72-77, 1996) are propagated in Dulbecco's modified Eagle medium supplemented with 10% foetal calf serum, non-essential amino acids, 100 U/ml penicillin, 100 mg/l streptomycin and 1 g/l geneticin (G418). For cyclic AMP determinations the Homogeneous Time-Resolved Fluoresce (HTRF) cAMP dynamic 2 kit (Cishbio International, France) was used as per manufacturers' instructions. CHO cells, previously cryopreserved, were thawed, centrifuged for 7 mins at 1200 rpm and resuspended in serum free media, then pipetted out onto clear bottomed black tissue culture treated 384-well microtitre plates (Corning Inc, US) at 2,000 cells per well. […] The plate is read on the Pherastar (BMG, Germany). […] Values represented by a change in arbitrary fluorescence units are converted into cAMP concentrations by use of a standard curve the reagents for which are supplied with the kit. […] IC50 values of antagonists are calculated by fitting the percent inhibition of the effect of CRF by increasing concentrations of the antagonists. […]
(TR-FRET usually uses a lanthanide donor and a delayed reading to cut background.)

Turning to `Cc1nc(C)n(-c2c(C)nn3c(-c4ccc(OC(F)F)cc4C)c(C)oc23)n1` [Example 1, 3-(4-(Difluoromethoxy)-2-methylphenyl)-7-(3,5-dimethyl-1H-1,2,4-triazol-1-yl)-2,6-dimethylpyrazolo[5,1-b]oxazole], the IC50 turned out to be 71 nM.

The record behind these values is patent US8163785B2, “Pyrazolo[5,1b]oxazole derivatives as CRF-1 receptor antagonists” (Novartis AG, priority 2010, dated 2012).
